Article PMC5332414, “Mycobacterium abscessus subsp. abscessus Is Capable of Degrading Pseudomonas aeruginosa Quinolone Signals” (Frontiers in Microbiology, 2017)

Columns and labels:
[1] = target: T1, AqdB (His8-MBP-AqdB) (Mycobacteroides abscessus, UniProt B1MFK1); test: biotransformation by recombinant E. coli cells, HPLC; assay type: cell-based; details: 20 μM HHQ, LB medium; E. coli Rosetta without aqdB did not convert HHQ
T1 construct: His8-MBP fusion, pET28b(+), expressed in E. coli Rosetta(DE3) whole cells

[2] = system: CCCCCCCc1[nH]c2ccccc2c(=O)c1O; test: purified protein; assay type: biochemical, Mycobacteroides abscessus; details: apparent, co-substrate O2, 50 mM Tris, 2 mM EDTA, 10% PEG 1500, 4% (v/v) DMSO, pH 8.0, 30°C

T1 sequence (B1MFK1 whole entry, the tested form may be a part): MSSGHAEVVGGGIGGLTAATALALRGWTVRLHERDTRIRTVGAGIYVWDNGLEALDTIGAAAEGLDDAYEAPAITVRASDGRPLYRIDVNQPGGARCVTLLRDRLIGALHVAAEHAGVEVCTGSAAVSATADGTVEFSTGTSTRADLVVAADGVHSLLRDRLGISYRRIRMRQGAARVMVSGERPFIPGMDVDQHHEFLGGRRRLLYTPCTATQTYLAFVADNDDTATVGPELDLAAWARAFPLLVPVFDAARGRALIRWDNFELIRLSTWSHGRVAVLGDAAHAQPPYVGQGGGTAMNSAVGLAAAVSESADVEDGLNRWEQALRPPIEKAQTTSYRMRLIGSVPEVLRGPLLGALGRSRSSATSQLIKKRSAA

Compound	biotransformation by recombinant E. coli cells, HPLC [1]	Km [2] [µM]	kcat [2] [s⁻¹]
CCCCCCCc1cc(=O)c2ccccc2[nH]1 [HHQ, 2-heptyl-4(1H)-quinolone]	E. coli cells producing the His8-MBP-AqdB protein converted HHQ to PQS	–	–
CCCCCCCc1[nH]c2ccccc2c(=O)c1O [PQS, 2-heptyl-3-hydroxy-4(1H)-quinolone]	E. coli cells producing the His8-MBP-AqdB protein converted HHQ to PQS	–	–
AqdC (AqdC^I) (Mycobacteroides abscessus ATCC 19977)	–	37.2 ± 9.8	97.8 ± 19.1
